# From patent US10758534B2 (Vertex Pharmaceuticals Incorporated, priority 2014, dated 2020)
# Target: T1, F508del (Homo sapiens, UniProt P13569, DEL508-508)
# T1 construct: expressed in transfected cells
# Experiment: Protocol 2: FRET membrane potential optical assay (VIPR), identification of correction compounds
# Type: cell-based
# Details: Table 3; compounds of Table 1 as modulators of CFTR activity; protocol not stated
# In short: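 Correction of the F508del trafficking defect is scored as forskolin (10 μM)/genistein (20 μM)-stimulated Cl^− efflux in NIH3T3 mouse fibroblasts after a 16 hr, 37° C. compound exposure. Depolarization was followed optically using voltage-sensing FRET dyes.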
# T1 sequence (P13569 with tags, fused parts or gaps DEL508-508): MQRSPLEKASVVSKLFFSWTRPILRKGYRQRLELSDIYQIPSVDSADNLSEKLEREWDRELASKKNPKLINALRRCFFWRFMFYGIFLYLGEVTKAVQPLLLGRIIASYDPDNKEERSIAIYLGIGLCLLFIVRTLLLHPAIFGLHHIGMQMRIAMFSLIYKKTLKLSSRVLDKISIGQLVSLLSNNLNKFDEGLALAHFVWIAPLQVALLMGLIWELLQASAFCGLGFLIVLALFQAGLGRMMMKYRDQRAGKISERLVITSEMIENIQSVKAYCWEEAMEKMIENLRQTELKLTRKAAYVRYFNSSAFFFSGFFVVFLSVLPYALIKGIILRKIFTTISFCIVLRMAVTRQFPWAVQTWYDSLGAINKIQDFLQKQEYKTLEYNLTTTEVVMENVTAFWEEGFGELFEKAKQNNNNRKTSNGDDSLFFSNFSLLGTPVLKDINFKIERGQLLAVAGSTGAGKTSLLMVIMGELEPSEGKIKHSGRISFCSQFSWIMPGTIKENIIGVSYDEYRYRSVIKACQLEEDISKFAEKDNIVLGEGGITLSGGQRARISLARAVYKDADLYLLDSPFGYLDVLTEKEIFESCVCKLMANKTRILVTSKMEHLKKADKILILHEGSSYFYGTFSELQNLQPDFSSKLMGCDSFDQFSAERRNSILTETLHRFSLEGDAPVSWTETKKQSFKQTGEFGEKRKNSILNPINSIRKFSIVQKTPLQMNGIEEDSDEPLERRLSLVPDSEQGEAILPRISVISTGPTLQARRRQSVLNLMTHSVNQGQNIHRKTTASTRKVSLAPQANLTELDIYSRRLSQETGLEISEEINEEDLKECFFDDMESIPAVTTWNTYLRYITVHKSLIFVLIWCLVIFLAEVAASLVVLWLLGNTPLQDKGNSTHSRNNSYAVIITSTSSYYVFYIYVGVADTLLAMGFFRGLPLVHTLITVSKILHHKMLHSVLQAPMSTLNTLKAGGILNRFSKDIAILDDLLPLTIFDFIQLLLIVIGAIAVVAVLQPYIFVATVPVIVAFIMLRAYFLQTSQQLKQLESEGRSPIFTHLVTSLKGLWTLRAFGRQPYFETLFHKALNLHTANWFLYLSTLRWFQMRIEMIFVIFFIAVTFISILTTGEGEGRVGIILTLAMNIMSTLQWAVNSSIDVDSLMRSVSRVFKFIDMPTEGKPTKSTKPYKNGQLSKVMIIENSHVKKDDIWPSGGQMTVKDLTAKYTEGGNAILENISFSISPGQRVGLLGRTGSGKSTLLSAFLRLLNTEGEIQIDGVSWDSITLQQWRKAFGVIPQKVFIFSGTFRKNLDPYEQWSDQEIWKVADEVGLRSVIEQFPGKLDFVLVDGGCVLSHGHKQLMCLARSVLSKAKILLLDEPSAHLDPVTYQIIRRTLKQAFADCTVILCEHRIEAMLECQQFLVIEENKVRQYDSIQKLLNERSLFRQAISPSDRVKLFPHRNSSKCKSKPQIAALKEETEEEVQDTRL
row,SMILES,EC30
1,"CC(C)Oc1ccc(-c2ccc(C(=O)NS(=O)(=O)c3cccc(N)n3)c(N3CC(c4ccccc4)CC3C)n2)cn1 (centres unmarked) [Compound 502, N-[(6-amino-2-pyridyl)sulfonyl]-6-(6-isopropoxy-3-pyridyl)-2-(2-methyl-4-phenyl-pyrrolidin-1-yl)pyridine-3-carboxamide]",+++ (“+++” means <3 uM)
2,"CC(C)COc1cc(F)cc(-c2ccc(C(=O)NS(=O)(=O)c3cccc(N)n3)c(OC3CCC(C)C3C)n2)c1 (centres unmarked) [Compound 503, N-[(6-amino-2-pyridyl)sulfonyl]-2-(2,3-dimethylcyclopentoxy)-6-(3-fluoro-5-isobutoxy-phenyl)pyridine-3-carboxamide]",+++ (“+++” means <3 uM)
3,"CC1CN(c2nc(-c3ccc(Cl)c(OC(C)C)c3)ccc2C(=O)NS(=O)(=O)c2cccc(N)n2)C(C)(C)C1 (centres unmarked) [Compound 504, N-[(6-amino-2-pyridyl)sulfonyl]-6-(4-chloro-3-isopropoxy-phenyl)-2-(2,2,4-trimethylpyrrolidin-1-yl)pyridine-3-carboxamide]",+++ (“+++” means <3 uM)
4,"Cc1cc(C)c(Oc2nc(-c3cc(O)cc(F)c3)ccc2C(=O)NS(=O)(=O)c2cccc(N)n2)c(C)c1 [Compound 505, N-[(6-amino-2-pyridyl)sulfonyl]-6-(3-fluoro-5-hydroxy-phenyl)-2-(2,4,6-trimethylphenoxy)pyridine-3-carboxamide]",++ (“++” means between 3 uM and 10 uM)
5,"CC(C)COc1cc(F)cc(-c2ccc(C(=O)NS(=O)(=O)c3ccn[nH]3)c(N3CCC4(CC3)OCc3ccccc34)n2)c1 [Compound 506, 6-(3-fluoro-5-isobutoxy-phenyl)-N-(1H-pyrazol-5-ylsulfonyl)-2-spiro[1H-isobenzofuran-3,4′-piperidine]-1′-yl-pyridine-3-carboxamide]",+++ (“+++” means <3 uM)
6,"CCOc1ccc(-c2ccc(C(=O)NS(=O)(=O)c3nccnc3N)c(N3CCC(C)CC3)n2)cc1 [Compound 507, N-(3-aminopyrazin-2-yl)sulfonyl-6-(4-ethoxyphenyl)-2-(4-methyl-1-piperidyl)pyridine-3-carboxamide]",+++ (“+++” means <3 uM)
7,"Cc1cc(C)c(CN2Cc3c(-c4ccccc4)cccc3C2C(=O)NS(=O)(=O)c2ccc[nH]c2=O)c(C)c1 (centres unmarked) [Compound 508, N-[(2-oxo-1H-pyridin-3-yl)sulfonyl]-4-phenyl-2-[(2,4,6-trimethylphenyl)methyl]isoindoline-1-carboxamide]",++ (“++” means between 3 uM and 10 uM)
8,"CC(C)Oc1ccc(-c2ccc(C(=O)NS(=O)(=O)c3cccc(N)n3)c(N3CCCC3c3ccccc3)n2)cn1 (centres unmarked) [Compound 509, N-[(6-amino-2-pyridyl)sulfonyl]-6-(6-isopropoxy-3-pyridyl)-2-(2-phenylpyrrolidin-1-yl)pyridine-3-carboxamide]",+++ (“+++” means <3 uM)
9,"COc1cccc(S(=O)(=O)NC(=O)c2ccc(-c3cc(F)cc(OCC(C)C)c3)nc2N2CCC(C)(C)CC2)c1 [Compound 510, 2-(4,4-dimethyl-1-piperidyl)-6-(3-fluoro-5-isobutoxy-phenyl)-N-(3-methoxyphenyl)sulfonyl-pyridine-3-carboxamide]",+++ (“+++” means <3 uM)
10,"CC(C)COc1cccc(-c2ccc(C(=O)NS(=O)(=O)c3ccc[nH]c3=O)c(N3[C@H](C)CC[C@@H]3C)n2)c1 [Compound 511, 2-[(2S,5R)-2,5-dimethylpyrrolidin-1-yl]-6-(3-isobutoxyphenyl)-N-[(2-oxo-1H-pyridin-3-yl)sulfonyl]pyridine-3-carboxamide]",+++ (“+++” means <3 uM)
11,"COc1ccc(S(=O)(=O)NC(=O)c2ccc(C(C)(C)C)nc2-c2ccc(C)cc2)cn1 [Compound 512, 6-tert-butyl-N-[(6-methoxy-3-pyridyl)sulfonyl]-2-(p-tolyl)pyridine-3-carboxamide]",++ (“++” means between 3 uM and 10 uM)
12,"Cc1cc(C)c(Oc2nc(-c3ccc(C)nc3)ccc2C(=O)NS(=O)(=O)c2cccc(N)n2)c(C)c1 [Compound 513, N-[(6-amino-2-pyridyl)sulfonyl]-6-(6-methyl-3-pyridyl)-2-(2,4,6-trimethylphenoxy)pyridine-3-carboxamide]",++ (“++” means between 3 uM and 10 uM)
13,"Cc1cc(C)c(Oc2nc(-c3ccncc3F)ccc2C(=O)NS(=O)(=O)c2cccc(N)n2)c(C)c1 [Compound 514, N-[(6-amino-2-pyridyl)sulfonyl]-6-(3-fluoro-4-pyridyl)-2-(2,4,6-trimethylphenoxy)pyridine-3-carboxamide]",+ (“+” means greater than 10 uM)
14,"Cc1cc(C)c(Oc2nc(C(C)(C)C)ccc2C(=O)N=S(N)(=O)c2cccc(N)n2)c(C)c1 (centres unmarked) [Compound 515, N-[amino-(6-amino-2-pyridyl)-oxo-$1^6-sulfanylidene]-6-tert-butyl-2-(2,4,6-trimethylphenoxy)pyridine-3-carboxamide]",+++ (“+++” means <3 uM)
15,"CC(C)COc1cc(F)cc(-c2ccc(C(=O)NS(=O)(=O)c3cccc(N)n3)c(N(C)C(C)C3CC3)n2)c1 (centres unmarked) [Compound 516, N-[(6-amino-2-pyridyl)sulfonyl]-2-[1-cyclopropylethyl(methyl)amino]-6-(3-fluoro-5-isobutoxy-phenyl)pyridine-3-carboxamide]",+++ (“+++” means <3 uM)
16,"CCOc1ccc(-c2ccc(C(=O)NS(=O)(=O)c3ccc[nH]c3=O)c(Oc3ccc(C)cc3C)n2)cc1 [Compound 517, 2-(2,4-dimethylphenoxy)-6-(4-ethoxyphenyl)-N-[(2-oxo-1H-pyridin-3-yl)sulfonyl]pyridine-3-carboxamide]",++ (“++” means between 3 uM and 10 uM)
17,"Cc1cc(C)c(Oc2nc(-c3ccc(F)cc3)ccc2C(=O)NS(=O)(=O)c2cc[nH]n2)c(C)c1 [Compound 518, 6-(4-fluorophenyl)-N-(1H-pyrazol-3-ylsulfonyl)-2-(2,4,6-trimethylphenoxy)pyridine-3-carboxamide]",+++ (“+++” means <3 uM)
18,"CC(C)COc1cc(F)cc(-c2ccc(C(=O)NS(=O)(=O)c3ccn[nH]3)c(N3CCCC4(COC4)C3)n2)c1 [Compound 519, 6-(3-fluoro-5-isobutoxy-phenyl)-2-(2-oxa-8-azaspiro[3.5]nonan-8-yl)-N-(1H-pyrazol-5-ylsulfonyl)pyridine-3-carboxamide]",++ (“++” means between 3 uM and 10 uM)
19,"CC1CN(c2nc(-c3ccc(OC(C)C)nc3)ccc2C(=O)NS(=O)(=O)c2cccc(N)n2)CC(C)(C)C1 (centres unmarked) [Compound 520, N-[(6-amino-2-pyridyl)sulfonyl]-6-(6-isopropoxy-3-pyridyl)-2-(3,3,5-trimethyl-1-piperidyl)pyridine-3-carboxamide]",+++ (“+++” means <3 uM)
20,"CC(C)Oc1ccc(-c2ccc(C(=O)NS(=O)(=O)c3cccc(N)n3)c(N3CC4CCC3C4)n2)cn1 (centres unmarked) [Compound 521, N-[(6-amino-2-pyridyl)sulfonyl]-2-(3-azabicyclo[2.2.1]heptan-3-yl)-6-(6-isopropoxy-3-pyridyl)pyridine-3-carboxamide]",++ (“++” means between 3 uM and 10 uM)
21,"CCCC1CCCN(c2nc(-c3ccc(OC(C)C)nc3)ccc2C(=O)NS(=O)(=O)c2cccc(N)n2)C1 (centres unmarked) [Compound 522, N-[(6-amino-2-pyridyl)sulfonyl]-6-(6-isopropoxy-3-pyridyl)-2-(3-propyl-1-piperidyl)pyridine-3-carboxamide]",+++ (“+++” means <3 uM)
22,"CC(C)CNc1cc(-c2ccc(C(=O)NS(=O)(=O)c3cccc(N)n3)c(N3CC(C)CC3(C)C)n2)ccn1 (centres unmarked) [Compound 523, N-[(6-amino-2-pyridyl)sulfonyl]-6-[2-(isobutylamino)-4-pyridyl]-2-(2,2,4-trimethylpyrrolidin-1-yl)pyridine-3-carboxamide]",+++ (“+++” means <3 uM)
23,"COc1ncccc1S(=O)(=O)NC(=O)c1ccc(-c2ccc(C)cc2)nc1-c1ccc(C)cc1 [Compound 524, N-[(2-methoxy-3-pyridyl)sulfonyl]-2,6-bis(p-tolyl)pyridine-3-carboxamide]",++ (“++” means between 3 uM and 10 uM)
24,"Cc1cc(C)c(Oc2nc(-c3cccc4c3OCO4)ccc2C(=O)NS(=O)(=O)c2ccc[nH]c2=O)c(C)c1 [Compound 525, 6-(1,3-benzodioxol-4-yl)-N-[(2-oxo-1H-pyridin-3-yl)sulfonyl]-2-(2,4,6-trimethylphenoxy)pyridine-3-carboxamide]",++ (“++” means between 3 uM and 10 uM)
25,"COc1ncccc1-c1ccc(C(=O)NS(=O)(=O)c2cccc(N)n2)c(N2CC(C)CC2(C)C)n1 (centres unmarked) [Compound 526, N-[(6-amino-2-pyridyl)sulfonyl]-6-(2-methoxy-3-pyridyl)-2-(2,2,4-trimethylpyrrolidin-1-yl)pyridine-3-carboxamide]",+++ (“+++” means <3 uM)
26,"CC(C)COc1cc(F)cc(-c2ccc(C(=O)NS(=O)(=O)c3cccc(N)n3)c(N3CC4(CCC4)C3)n2)c1 [Compound 527, N-[(6-amino-2-pyridyl)sulfonyl]-2-(6-azaspiro[3.3]heptan-6-yl)-6-(3-fluoro-5-isobutoxy-phenyl)pyridine-3-carboxamide]",+++ (“+++” means <3 uM)
27,"CC(C)COc1cc(F)cc(-c2ccc(C(=O)NS(=O)(=O)c3ccn[nH]3)c(N3CCC(C)C(C)C3)n2)c1 (centres unmarked) [Compound 528, 2-(3,4-dimethyl-1-piperidyl)-6-(3-fluoro-5-isobutoxy-phenyl)-N-(1H-pyrazol-5-ylsulfonyl)pyridine-3-carboxamide]",+++ (“+++” means <3 uM)
28,"CC(C)(C)c1ccc(C(=O)NS(=O)(=O)c2cccc(N)n2)c(C2=CCCC2)n1 [Compound 529, N-[(6-amino-2-pyridyl)sulfonyl]-6-tert-butyl-2-(cyclopenten-1-yl)pyridine-3-carboxamide]",++ (“++” means between 3 uM and 10 uM)
29,"CCC1(C)CCCN(c2nc(-c3cc(F)cc(OCC(C)C)c3)ccc2C(=O)NS(=O)(=O)c2cccc(N)n2)C1 (centres unmarked) [Compound 530, N-[(6-amino-2-pyridyl)sulfonyl]-2-(3-ethyl-3-methyl-1-piperidyl)-6-(3-fluoro-5-isobutoxy-phenyl)pyridine-3-carboxamide]",+++ (“+++” means <3 uM)
